Reference: US9617289B2, “RSV antiviral compounds” (JANSSEN R&D IRELAND, priority 2012, dated 2017)

The compounds below were run on rgRSV224 virus (assay: Antiviral activity: inhibition of rgRSV224 (GFP-expressing RSV) replication in HeLa cells). Conditions: human respiratory syncytial virus, HeLa, 72 h, read-out: RSV-wt_pEC50, rgRSV224 (MOI=0.02) in HeLa cells, GFP expression three days post-virus exposure.
Format: cell-based, respiratory syncytial virus
Experimental: Black 96-well clear-bottom microtiter plates (Corning, Amsterdam, The Netherlands) were filled in duplicate using a customized robot system with serial 4-fold dilutions of compound in a final volume of 50 μl culture medium [RPMI medium without phenol red, 10% FBS, 0.04% gentamycin (50 mg/ml) and 0.5% DMSO]. Then, 100 μl of a HeLa cell suspension (5×10^4 cells/ml) in culture medium was added to each well followed by the addition of 50 μl rgRSV224 (MOI=0.02) virus in culture medium using a multidrop dispenser (Thermo Scientific, Erembodegem, Belgium). rgRSV224 virus is an engineered virus that includes an additional GFP gene (Hallak et al, 2000) and was in-licensed from the NIH (Bethesda, Md., USA). Medium, virus- and mock-infected controls were included in each test. Cells were incubated at 37° C. in a 5% CO2 atmosphere. Three days post-virus exposure, viral replication was quantified by measuring GFP expression in the cells by a MSM laser microscope (Tibotec, Beerse, Belgium). The EC50 was defined as the 50% inhibitory concentration for GFP expression. In parallel, compounds were incubated for three days in a set of white 96-well microtitier plates (Corning) and the cytotoxicity of compounds in HeLa cells was determined by measuring the ATP content of the cells using the ATPlite kit (PerkinElmer, Zaventem, Belgium) according to the manufacturer's instructions. The CC50 was defined as the 50% concentration for cytotoxicity. SI is calculated as CC50/EC50.

| SMILES | EC50 [nM] |
| --- | --- |
| N#CCCCn1c(CN2C(=O)C3(CN(C(=O)[C@@H](O)CO)C3)c3ccccc32)cc2cc(Cl)ccc21 (single isomer, unassigned) [Compound 129] | 0.355 |

Same assay, conditions: human respiratory syncytial virus, HeLa, 72 h, read-out: pEC50, rgRSV224 (MOI=0.02) in HeLa cells, GFP expression three days post-virus exposure (converted)

| SMILES | EC50 [nM] |
| --- | --- |
| CC(C)(C)OC(=O)N1CCC2(CC1)C(=O)N(Cc1cc3cc(Cl)ccc3n1CCCS(C)(=O)=O)c1cnccc12 [Compound 1, tert-butyl 1′-({5-chloro-1-[3-(methylsulfonyl)propyl]-1H-indol-2-yl}methyl)-2′-oxo-1′,2′-dihydro-1H-spiro [piperidine-4,3′-pyrrolo[2,3-c]pyridine]-1-carboxylate] | 0.631 |
| CS(=O)(=O)CCCn1c(CN2C(=O)C3(CCNCC3)c3ccncc32)cc2cc(Cl)ccc21 [Compound 2, 1′-({5-chloro-1-[3-(methylsulfonyl)propyl]-1H-indol-2-yl}methyl)spiro[piperidine-4,3′-pyrrolo[2,3-c]pyridin]-2′(1′H)-one] | 50.1 |
| CS(=O)(=O)CCCn1c(CN2C(=O)C3(CCN(S(C)(=O)=O)CC3)c3ccncc32)cc2cc(Cl)ccc21 [Compound 3, 1′-({5-chloro-1-[3-(methylsulfonyl)propyl]-1H-indol-2-yl}methyl)-1-(methylsulfonyl)spiro[piperidine-4,3′-pyrrolo[2,3-c]pyridin]-2′(1′H)-one] | 0.0316 |
| CC(C)(C)OC(=O)N1CC2(C1)C(=O)N(Cc1nc3cc(Cl)ccc3n1CCCS(C)(=O)=O)c1ccccc12 [Compound 4, tert-butyl 1′-({5-chloro-1-[3-(methylsulfonyl)propyl]-1H-benzimidazol-2-yl}methyl)-2′-oxo-1′,2′-dihydro-1H-spiro[azetidine-3,3′-indole]-1-carboxylate] | 0.0794 |
| CS(=O)(=O)CCCn1c(CN2C(=O)C3(CNC3)c3ccccc32)nc2cc(Cl)ccc21 [Compound 5, 1′-({5-chloro-1-[3-(methylsulfonyl)propyl]-1H-benzimidazol-2-yl}methyl)spiro[azetidine-3,3′-indol]-2′(1′H)-one] | 5.01 |
| CC(C)(O)C(=O)N1CC2(C1)C(=O)N(Cc1nc3cc(Cl)ccc3n1CCCS(C)(=O)=O)c1ccccc12 [Compound 6, 1′-({5-chloro-1-[3-(methylsulfonyl)propyl]-1H-benzimidazol-2-yl}methyl)-1-(2-hydroxy-2-methylpropanoyl)spiro[azetidine-3,3′-indol]-2′(1′H)-one] | 0.501 |
| CS(=O)(=O)CCCn1c(CN2C(=O)C3(CN(c4cccnc4)C3)c3ccccc32)nc2cc(Cl)ccc21 [Compound 7, 1′-({5-chloro-1-[3-(methylsulfonyl)propyl]-1H-benzimidazol-2-yl}methyl)-1-(pyridin-3-yl)spiro[azetidine-3,3′-indol]-2′(1′H)-one] | 0.0251 |
| CC(C)(O)CN1CC2(C1)C(=O)N(Cc1nc3cc(Cl)ccc3n1CCCS(C)(=O)=O)c1ccccc12 [Compound 8, 1′-({5-chloro-1-[3-(methylsulfonyl)propyl]-1H-benzimidazol-2-yl}methyl)-1-(2-hydroxy-2-methylpropyl)spiro[azetidine-3,3′-indol]-2′(1′H)-one] | 0.794 |
| CS(=O)(=O)CCCn1c(CN2C(=O)C3(CCN(S(=O)(=O)c4ccc5nccnc5c4)CC3)c3ccncc32)nc2cc(Cl)ccc21 [Compound 13, 1′-((5-chloro-1-(3-(methylsulfonyl)propyl)-1H-benzo[d]-imidazol-2-yl)methyl)-1-(quinoxalin-6-ylsulfonyl)spiro-[piperidine-4,3′-pyrrolo[2,3-c]pyridin]-2′(1′H)-one] | 0.0501 |
| CC(C)(C)OC(=O)N1CCC2(CC1)C(=O)N(Cc1nc3cc(Cl)ccc3n1CCCS(C)(=O)=O)c1cnccc12 [Compound 14, tert-butyl 1′-((5-chloro-1-(3-(methylsulfonyl)propyl)-1H-benzo[d]imidazol-2-yl)methyl)-2′-oxo-1′,2′-dihydrospiro-[piperidine-4,3′-pyrrolo[2,3-c]pyridine]-1-carboxylate] | < 0.158 |
| CS(=O)(=O)CCCn1c(CN2C(=O)C3(CCN(c4ccc(Cl)nn4)CC3)c3ccccc32)nc2cc(Cl)ccc21 [Compound 15, 1-((5-chloro-1-(3-(methylsulfonyl)propyl)-1H-benzo[d]-imidazol-2-yl)methyl)-1′-(6-chloropyridazin-3-yl)spiro-[indoline-3,4′-piperidin]-2-one] | < 0.158 |
| CS(=O)(=O)CCCn1c(CN2C(=O)C3(CCN(S(=O)(=O)c4ccc5nccnc5c4)CC3)c3ccccc32)nc2cc(Cl)ccc21 [Compound 16, 1-((5-chloro-1-(3-(methylsulfonyl)propyl)-1H-benzo[d]-imidazol-2-yl)methyl)-1′-(quinoxalin-6-ylsulfonyl)spiro-[indoline-3,4′-piperidin]-2-one] | < 0.158 |
| CC(C)(C)OC(=O)N1CCC2(CC1)C(=O)N(Cc1nc3cc(Br)ccc3n1CCCS(C)(=O)=O)c1ccccc12 [Compound 17, tert-butyl 1-((5-bromo-1-(3-(methylsulfonyl)propyl)-1H-benzo[d]imidazol-2-yl)methyl)-2-oxospiro[indoline-3,4′-piperidine]-1′-carboxylate] | 0.316 |
| CS(=O)(=O)CCCn1c(CN2C(=O)C3(CCN(S(=O)(=O)c4ccc(C#N)cc4)CC3)c3ccccc32)nc2cc(Cl)ccc21 [Compound 18, 4-(1-((5-chloro-1-(3-(methylsulfonyl)propyl)-1H-benzo[d]-imidazol-2-yl)methyl)-2-oxospiro[indoline-3,4′-piperidine]-1′-ylsulfonyl) benzonitrile] | 1.26 |
| CS(=O)(=O)CCCn1c(CN2C(=O)C3(CCOCC3)c3cc(F)ccc32)nc2cc(Cl)ccc21 [Compound 19] | 3.98 |
| CS(=O)(=O)CCCn1c(CN2C(=O)C3(CCN(c4ccc(Cl)nn4)CC3)c3cc(Br)ccc32)nc2cc(Cl)ccc21 [Compound 20, 5-bromo-1-((5-chloro-1-(3-(methylsulfonyl)propyl)-1H-benzo[d]imidazol-2-yl)methyl)-1′-(6-chloropyridazin-3-yl)spiro[indoline-3,4′-piperidin]-2-one] | 3.98 |
| CS(=O)(=O)CCCn1c(CN2C(=O)C3(CCNCC3)c3ccccc32)nc2cc(Cl)ccc21 [Compound 21, 1-((5-chloro-1-(3-(methylsulfonyl)propyl)-1H-benzo[d]-imidazol-2-yl)methyl)spiro[indoline-3,4′-piperidin]-2-one] | 5.01 |
| CS(=O)(=O)CCCn1c(CN2C(=O)C3(CCN(C(=O)c4ccncc4)CC3)c3cc(Br)ccc32)nc2cc(Cl)ccc21 [Compound 22, 5-bromo-1-((5-chloro-1-(3-(methylsulfonyl)propyl)-1H-benzo[d]imidazol-2-yl)methyl)-1′-isonicotinoylspiro-[indoline-3,4′-piperidin]-2-one] | 7.94 |
| CC(C)(C)OC(=O)N1CCC2(CC1)C(=O)N(Cc1nc3cc(Cl)ccc3n1CCCS(C)(=O)=O)c1ccc(Br)cc12 [Compound 23, tert-butyl 5-bromo-1-((5-chloro-1-(3-(methyl-sulfonyl)propyl)-1H-benzo[d]imidazol-2-yl)methyl)-2-oxospiro[indoline-3,4′-piperidine]-1′-carboxylate] | 7.94 |
| CC(=O)N1CCC2(CC1)C(=O)N(Cc1nc3cc(Cl)ccc3n1CCCS(C)(=O)=O)c1ccc(Cl)cc12 [Compound 24, 1-acetyl-5-chloro-1-((5-chloro-1-(3-(methylsulfonyl)-propyl)-1H-benzo[d]imidazol-2-yl)methyl)spiro[indoline-3,4′-piperidin]-2-one] | 7.94 |
